The values below come from patent EP0974573A1, “PHENYLPROPENONE COMPOUNDS AND MEDICINES CONTAINING THE SAME” (Kabushiki Kaisha Yakult Honsha, priority 1997, dated 1998).

One assay concerns rat-derived ACAT. The assay is described as follows: Inhibitory effects on rat-derived ACAT (Test 1). Conditions: crude enzyme from microsome protein fractions of rat liver, (14C)-oleoyl-CoA substrate, 37°C. Type of assay: biochemical. Here is the method:
To test effects on ACAT, a reaction was conducted in vitro to form (^14C)-cholesteryl oleate from endogeneous cholesterol in the presence of (^14C)-oleoyl-CoA as a substrate by using a crude enzyme prepared from microzome protein fractions of a rat liver.
The reaction mixture had the following composition: 20 µℓ of microsome protein (1.83 mg/mℓ), 20 µℓ of (^14C)-oleoyl-CoA (5 µCi/mℓ, BSA: 96 nmol/mℓ), 106 µℓ of 100 mM phosphate buffer (containing 5 mM of dithiothreitol, pH 7.4) and a sample dissolved in 4 µℓ of methanol or dimethyl sulfoxide; 150 µℓ in total.
The reaction was conducted at 37°C. After an elapse of a predetermined reaction time (18 minutes in general), a 2:1 mixture of chloroform and methanol (5.65 mℓ) was added to terminate the reaction. A 0.04 N aquous solution of hydrochloric acid (0.98 mℓ) and as a carrier, cholesteryl oleate were added, followed by extraction for 20 minutes on a shaking apparatus. The mixture was then allowed to stand overnight in a cold dark place. On the following day, the separated lower chloroform layer was extracted in its entirety and was dried under a nitrogen gas stream. The remaining upper layer was added with the lower layer (5.65 mℓ) of the Folch's partition solution, and was extracted again. After the mixture was allowed to stand overnight in a dark place, the lower layer was drawn in its entirety. This lower layer was combined with the lower chloroform layer fraction, which had already been dried to solid, and the mixture was then dried to solid.
The solid was then dissolved in chlorofrom (200 µℓ), and the solution was coated in its entirety on a G60 plate (aluminum sheet) for silica gel thin layer chromatography. After the solid was developedover 10 cm with a 10:190 mixture of diethyl ether and petroleum ether, autoradiography was conducted and the formation of (^14C)-colesteryl oleate was confirmed. This section was then cut off. The radioactivity of each sample was measured by subjecting it to liquid scintillation counting for 5 minutes in toluene or was measured for 30 minutes by a "Betascope" (manufactured by BETA-GEN INC. The results so obtained are shown in Table 1. Table 1

Assay [1] has as its system J774.1 strain, an established cell line of mouse macrophage. The assay is described as follows: Inhibitory effects on the accumulation of cholesterol esters in macrophage (Test 2). The format is cell-based. Conditions: J774.1 mouse macrophage, 12 hours incubation with cholesterol liposomes. Here is the method:
Inhibitory effects on the accumulation of cholesterol esters in macrophage were tested using J774.1 strain, an established cell line of mouse macrophage.
Metabolism of LDL in endothelial cells or smooth muscle cells causes downregulation of the LDL receptor by excess free cholesterol in the cells, but in a macrophage, uptake of modified lDL takes place via a scavenger receptor. As no regulation is applied to this pathway, cholesterol esters progressively accumulate without any limitation.
It was therefore studied whether or not corydaline would inhibit intracellular accumulation of cholesterol esters by having liposomes, which were formed of […] cholesterol and phosphatidylcholine, uptaken in macrophage cells and then causing them to act on acyl-CoA:cholesterol acyltransferase which existed on rough-surfaced endoplasmic reticula.
The macrophage cells were incubated for 2 days under 5% CO2 on an RPMI 1640 medium (product of NISSUI PHARMACEUTICAL CO., LTD.) which had been added with 10% fetal bovine serum, penicilin (50 U/mℓ) and streptomycin (50 µg/mℓ). Trypsinization was then conducted, and cells attached to the bottom of each well were peeled off and formulated into a cell suspension. The cells were washed with a fresh supply of the above-described culture medium, and the cell solution was then seeded at 2 x 10^6 cells/mℓ on a 24-well multiple well plate ("25820-24", product of CORNING INC.). After incubation at 37°C under 5% CO2 for 37 hours, the culture medium was replaced with a fresh supply of the above-described culture medium and, after a 0.3 M glucose solution (40 µℓ) with cholesterol [80 µg; containing 0.4 µCi of (^3H)-cholesterol] and phosphatidylcholine (160 µg) contained therein and a methanol solution (10 µℓ)with a test sample dissolved therein were added, incubation was conducted for 12 hours. These procedures were carried out aseptically.
After completion of the incubation, cells attached to each bottom were washed 5 times with a serum-free RPMI 1640 medium by a graduated pipet, and isopropanol (1 mℓ) was added to extract intracellular cholesterol and formed cholesterol esters. The extract was coated in its entirety on a silica gel thin layer chromatography ("Art 5553", product of MERCK & Co., INC.) and subsequent to development with a 80:20:2 mixture of hexane, ethyl ether and formic acid, autoradiography was performed.
A section, which contained ^3H-labelled cholesterol esters and cholesterol, was cut off. Its radioactivity was measured by a liquid scintillation counter and compared with a control, whereby a cholesterol ester accumulation inhibition rate was determined.

For orientation: IC50 means the concentration that inhibits the measured activity by half. Read a low IC50 as greater potency. Regarding `COc1cc(/C=C/C(=O)N2CCN(c3ccc(C)c(C)c3)CC2)cc(OC)c1OCc1ccccc1` [Compound 11, N-[4-(3,4-dimethylphenyl)-1,4-diazacyclohexyl]-(2E)-(3,5-dimethoxy-4-benzyloxyphenyl)-2-propenamide], the IC50 in the assay on rat-derived ACAT turned out to be 60 nM; in assay [1], 189 nM.
For `CCCCCCOc1c(OC)cc(/C=C/C(=O)N2CCN(c3ccc(C)cc3C)CC2)cc1OC` [Compound 13] the same measures were 79 nM and 200 nM.
Regarding `CCCCCCCCCCCCOc1c(OC)cc(/C=C/C(=O)NN2CCN(c3ccc(C)cc3C)CC2)cc1OC` [Compound 19, N-[4-(2,4-dimethylphenyl)-1,4-diazacyclohexyl]-(2E)-3-(3,5-dimethoxy-4-dodecyloxyphenyl) -2-propenamide], the IC50 came to 70 nM in the assay with rat-derived ACAT and 250 nM in assay [1] (Mus musculus, J774.1, 12 h).
`COc1cc(/C=C/C(=O)NCc2ccccc2)cc(OC)c1OCc1ccccc1` [Compound 58, N-benzyl-(2E)-3-(3,5-dimethoxy-4-benzyloxyphenyl)-2-propenamide] had an IC50 in assay [1] (Mus musculus, J774.1, 12 h) of 930 nM.
In the case of `COc1cc(/C=C/C(=O)NCCc2ccccc2)cc(OC)c1OCc1ccccc1` [Compound 59, N-(2-phenyl)ethyl-(2E)-3-(3,5-dimethoxy-4-benzyloxyphenyl)-2-propenamide], the IC50 in assay [1] (Mus musculus, J774.1, 12 h) turned out to be 620 nM.
The same measure, in the same setting: to `COc1cc(/C=C/C(=O)NCCCc2ccccc2)cc(OC)c1OCc1ccccc1` [Compound 60, N-(3-phenyl)propyl-(2E)-3-(3,5-dimethoxy-4-benzyloxyphenyl)-2-propenamide] belongs 870 nM; to `COc1cc(/C=C/C(=O)NCCCCc2ccccc2)cc(OC)c1OCc1ccccc1` [Compound 61, N-(4-phenyl)butyl-(2E)-3-(3,5-dimethoxy-4-benzyloxyphenyl)-2-propenamide], 840 nM.
Turning to `COc1cc(/C=C/C(=O)NC2CCN(Cc3ccccc3)CC2)cc(OC)c1OCc1ccccc1` [Compound 62, N-[4-(1-benzyl)piperidino]-(2E)-3-(3,5-dimethoxy-4-benzyloxyphenyl)-2-propenamide], in assay [1], the half-maximal inhibitory concentration (IC50) turned out to be 840 nM.
Turning to `COc1cc(/C=C/C(=O)Nc2ccc(C)cc2C)cc(OC)c1OCc1ccccc1` [Compound 63, N-(2,4-dimethylphenyl)-(2E)-3-(3,5-dimethoxy-4-benzyloxyphenyl)-2-propenamide], the IC50 worked out at 52 nM in the assay on rat-derived ACAT and 520 nM in assay [1] (Mus musculus, J774.1, 12 h).
Turning to `COc1cc(/C=C/C(=O)Nc2cccc(C)c2C)cc(OC)c1OCc1ccccc1` [Compound 64, N-(2,3-dimethylphenyl)-(2E)-3-(3,5-dimethoxy-4-benzyloxyphenyl)-2-propenamide], the IC50 turned out to be 35 nM with rat-derived ACAT and 900 nM in assay [1] (Mus musculus, J774.1, 12 h).
For `COc1cc(/C=C/C(=O)Nc2ccc(C)c(C)c2)cc(OC)c1OCc1ccccc1` [Compound 65, N-(3,4-dimethylphenyl)-(2E)-3-(3,5-dimethoxy-4-benzyloxyphenyl)-2-propenamide] the same measures were 47 nM and 46 nM.
For `COc1cc(/C=C/C(=O)Nc2c(C)cccc2C)cc(OC)c1OCc1ccccc1` [Compound 66, N-(2,6-dimethylphenyl)-(2E)-3-(3,5-dimethoxy-4-benzyloxyphenyl)-2-propenamide] the same measures were 47 nM and 900 nM.
On to `COc1cc(/C=C/C(=O)Nc2c(C)cc(C)cc2C)cc(OC)c1OCc1ccccc1` [Compound 67, N-(2,4,6-trimethylphenyl)-(2E)-3-(3,5-dimethoxy-4-benzyloxyphenyl)-2-propenamide], for which, in assay [1] (Mus musculus, J774.1, 12 h), the IC50 stood at 870 nM.
For the compound `COc1cc(/C=C/C(=O)Nc2c(C(C)C)cccc2C(C)C)cc(OC)c1OCc1ccccc1` [Compound 68, N-(2,6-diisopropylphenyl)-(2E)-3-(3,5-dimethoxy-4-benzyloxyphenyl)-2-propenamide], the 50% inhibitory concentration (IC50) worked out at 72 nM with rat-derived ACAT and 790 nM in assay [1] (Mus musculus, J774.1, 12 h).
Take `COc1cc(/C=C/C(=O)Nc2ccc(C(C)(C)C)cc2)cc(OC)c1OCc1ccccc1` [Compound 69, N-(4-tert-butylphenyl)-(2E)-3-(3,5-dimethoxy-4-benzyloxyphenyl)-2-propenamide]: the midpoint of inhibition in assay [1] (Mus musculus, J774.1, 12 h), the IC50, lay at 28 nM.
On the same count and under the same terms, to `COc1cc(/C=C/C(=O)Nc2ccccc2C(C)(C)C)cc(OC)c1OCc1ccccc1` [Compound 70, N-(2-tert-butylphenyl)-(2E)-3-(3,5-dimethoxy-4-benzyloxyphenyl)-2-propenamide] belongs 840 nM.
Consider `COc1cc(/C=C/C(=O)Nc2ccc(C)cc2)cc(OC)c1OCc1ccccc1` [Compound 71, N-(4-methylphenyl)-(2E)-3-(3,5-dimethoxy-4-benzyloxyphenyl)-2-propenamide], for which the IC50 in the assay with rat-derived ACAT amounted to 37 nM; in assay [1] (Mus musculus, J774.1, 12 h), 120 nM.
In the same order, the values of `COc1ccc(NC(=O)/C=C/c2cc(OC)c(OCc3ccccc3)c(OC)c2)cc1` [Compound 72, N-(4-methoxyphenyl)-(2E)-3-(3,5-dimethoxy-4-benzyloxyphenyl)-2-propenamide] are 35 nM and 170 nM.
In turn, `COc1cc(/C=C/C(=O)Nc2ccc(OC(C)C)cc2)cc(OC)c1OCc1ccccc1` [Compound 73, N-(4-isopropyloxyphenyl)-(2E)-3-(3,5-dimethoxy-4-benzyloxyphenyl)-2-propenamide] yielded an IC50 in assay [1] (Mus musculus, J774.1, 12 h) of 31 nM.
On to `COc1cc(/C=C/C(=O)Nc2ccc(N(C)C)cc2)cc(OC)c1OCc1ccccc1` [Compound 74, N-[4-(N',N^'-dimethylamino)phenyl]-(2E)-3-(3,5-dimethoxy-4-benzyloxyphenyl)-2-propenamide], for which the concentration for half-maximal inhibition (IC50) turned out to be 90 nM in the assay with rat-derived ACAT and 990 nM in assay [1].
Turning to `COc1cc(/C=C/C(=O)Nc2ccccc2)cc(OC)c1OCc1ccccc1` [Compound 76, N-phenyl-(2E)-3-(3,5-dimethoxy-4-benzyloxyphenyl)-2-propenamide], the IC50 in assay [1] (Mus musculus, J774.1, 12 h) was 490 nM.
The same measure, in the same setting: with `COc1cc(/C=C/C(=O)Nc2ccc(Br)cc2)cc(OC)c1OCc1ccccc1` [Compound 79, N-(4-bromophenyl)-(2E)-3-(3,5-dimethoxy-4-benzyloxyphenyl)-2-propenamide] the figure was 78 nM; with `COc1cc(/C=C/C(=O)Nc2ccc(I)cc2)cc(OC)c1OCc1ccccc1` [Compound 80, N-(4-iodophenyl)-(2E)-3-(3,5-dimethoxy-4-benzyloxyphenyl)-2-propenamide], 43 nM; with `COc1cc(/C=C/C(=O)Nc2ccc(Cl)c(Cl)c2)cc(OC)c1OCc1ccccc1` [Compound 81, N-(3,4-dichlorophenyl)-(2E)-3-(3,5-dimethoxy-4-benzyloxyphenyl)-2-propenamide], 150 nM.
With `COc1cc(/C=C/C(=O)Nc2ccc(Oc3ccccc3)cc2)cc(OC)c1OCc1ccccc1` [Compound 85, N-(4-phenoxyphenyl)-(2E)-3-(3,5-dimethoxy-4-benzyloxyphenyl)-2-propenamide], it took 26 nM to reach half-maximal inhibition in assay [1] (Mus musculus, J774.1, 12 h) (IC50).
In the case of “N-[4-(2,4-dimethylphenyl)-1,4-diazacyclohexyl]-(2E)-3-[3,5-dimethoxy-4-(3-phenyl)propyloxy]-2-propenamide [Compound 23]”, the half-inhibitory concentration (IC50) in assay [1] turned out to be 32 nM.
